Patent publication US20230000816A1, “SODIUM-GLUCOSE LINKED TRANSPORTER INHIBITORS FOR THE MANAGEMENT OF CHRONIC KIDNEY DISEASE, HYPERTENSION, AND HEART FAILURE IN COMPANION ANIMALS” (INCREVET, INC., priority 2019, published 2023)

How the values were obtained:
purpose-bred beagles = assay: Serum glucose after single oral dose and glucose challenge 1 h post-dose in dogs; assay type: in vivo, dog; conditions: mean ± SD; for Serum Glucose Concentration, 15 min / Serum Glucose Concentration, 30 min / Serum Glucose Concentration, 60 min / Serum Glucose Concentration, 120 min: after glucose challenge; for Serum Glucose Concentration, −60 min: before dosing; for Serum Glucose Concentration, 0 min: before glucose challenge (1 h post-dose)
Procedure: Groups of four purpose-bred beagles per cohort were administered ascending doses of bexagliflozin in the form of a proline co-crystal consisting of two moles of L-proline for every mole of bexagliflozin. The co-crystal was dissolved in 10% PEG400 and administered by oral gavage to dogs that had been fasted overnight. Control dogs were administered 10% PEG400. One hour after dosing, glucose solution (2 g kg^−1, 5 ml kg^−1) was administered by gavage. Serum glucose concentrations were quantitated by an automated clinical chemistry analyzer for samples collected before dosing, before glucose challenge, and 15, 30, 60, and 120 min after glucose challenge. Urine was collected from 0 to 4 h, 4 to 8 h and 8 to 24 h after dosing for electrolyte analyses (Na^+, K^+, Cl^− and Ca^2+) and glucose measurement. Whole blood samples of approximately 500 μL were collected from the cephalic vein 0, 0.25, 0.5, 1, 2, 4, 8, 12 and 24 h after dosing for pharmacokinetic analysis.

cats with diabetes = assay: Measures of renal health (creatinine, BUN, SDMA) in diabetic cats managed with bexagliflozin, MMRM analysis; assay type: in vivo, cat
Excerpt: Venous blood specimens were collected at regular intervals and analyzed for standard parameters of interest for routine clinical care, including creatinine, BUN and SDMA. Owners were advised to provide a diet low in carbohydrates as an element of the disease management plan. An important consequence of the shift to a low carbohydrate diet is the increase in dietary protein (contributing to BUN) and specifically dietary muscle-derived protein (contributing to creatinine).
FIG. 6, FIG. 7 and FIG. 8 show the measured concentrations of creatinine, BUN and SDMA in cats as a function of time in the study. […] Considerable variation can be seen in the individual values.
To identify treatment-related trends, the data for each of the three analytes were analyzed by a mixed model repeated measures (MMRM) analysis of covariance, with cat as a categorical (class) effect and day of measurement and initial value at the baseline visit as continuous covariates. Because the diets of many of the animals were changed at the baseline visit, and the effects of diet on creatinine and BUN are generally thought to be prompt, the analysis considered only changes in analyte values over the non-baseline visit days.

human SGLT2 = target: T1, human SGLT2 (Homo sapiens, UniProt P31639); assay: Inhibition of human SGLT2
T1 sequence (P31639 1-672): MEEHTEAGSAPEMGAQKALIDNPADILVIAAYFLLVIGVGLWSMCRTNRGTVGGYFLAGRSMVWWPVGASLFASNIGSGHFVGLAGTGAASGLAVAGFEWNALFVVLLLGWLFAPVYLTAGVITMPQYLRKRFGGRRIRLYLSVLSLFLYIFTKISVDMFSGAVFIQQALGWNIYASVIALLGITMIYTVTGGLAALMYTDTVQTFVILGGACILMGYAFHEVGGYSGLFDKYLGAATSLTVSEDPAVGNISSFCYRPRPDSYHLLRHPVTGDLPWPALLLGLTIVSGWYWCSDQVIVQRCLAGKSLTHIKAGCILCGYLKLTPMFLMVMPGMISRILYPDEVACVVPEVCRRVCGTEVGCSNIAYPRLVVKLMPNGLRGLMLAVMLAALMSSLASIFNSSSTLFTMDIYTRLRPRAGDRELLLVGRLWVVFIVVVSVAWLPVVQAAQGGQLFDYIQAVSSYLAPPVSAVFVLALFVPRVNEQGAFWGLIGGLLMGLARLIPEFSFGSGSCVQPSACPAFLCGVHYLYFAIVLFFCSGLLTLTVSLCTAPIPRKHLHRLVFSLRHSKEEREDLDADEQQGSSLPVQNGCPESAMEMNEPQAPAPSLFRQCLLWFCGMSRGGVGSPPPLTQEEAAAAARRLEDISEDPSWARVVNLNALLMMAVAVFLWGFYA

feline SGLT2 = assay: Inhibition of feline SGLT2

## OC[C@H]1O[C@@H](c2ccc(Cl)c(Cc3ccc(OCCOC4CC4)cc3)c2)[C@H](O)[C@@H](O)[C@@H]1O [Bexagliflozin, (2S,3R,4R,5 S,6R)-2-(4-chloro-3-(4-(2-cyclopropoxyethoxy)benzyl)phenyl)-6-(hydroxymethyl)tetrahydro-2H-pyran-3,4,5-triol]
purpose-bred beagles; 0.02 mg kg^−1 oral
  Serum Glucose Concentration, 15 min: 122.13 ± 17.54 mg/dL
  Serum Glucose Concentration, 30 min: 97.43 ± 6.87 mg/dL
  Serum Glucose Concentration, 60 min: 93.29 ± 19.87 mg/dL
  Serum Glucose Concentration, 120 min: 78.03 ± 10.98 mg/dL
  Serum Glucose Concentration, 0 min: 95.94 ± 8.37 mg/dL
purpose-bred beagles; 0.02 mg kg^−1 oral, time relative to glucose challenge
  Serum Glucose Concentration, −60 min: 100.89 ± 3.49 mg/dL
purpose-bred beagles; 0.067 mg kg^−1 oral
  Serum Glucose Concentration, 15 min: 107.91 ± 12.08 mg/dL
  Serum Glucose Concentration, 30 min: 104.31 ± 26.84 mg/dL
  Serum Glucose Concentration, 60 min: 104.27 ± 17.85 mg/dL
  Serum Glucose Concentration, 120 min: 79.65 ± 11.69 mg/dL
  Serum Glucose Concentration, −60 min: 98.64 ± 7.63 mg/dL
  Serum Glucose Concentration, 0 min: 91.58 ± 6.49 mg/dL
purpose-bred beagles; 0.20 mg kg^−1 oral
  Serum Glucose Concentration, 15 min: 96.71 ± 7.21 mg/dL
  Serum Glucose Concentration, 30 min: 105.48 ± 18.67 mg/dL
  Serum Glucose Concentration, 60 min: 101.75 ± 14.83 mg/dL
  Serum Glucose Concentration, 120 min: 76.10 ± 7.91 mg/dL
  Serum Glucose Concentration, −60 min: 97.02 ± 7.61 mg/dL
  Serum Glucose Concentration, 0 min: 84.65 ± 7.98 mg/dL
purpose-bred beagles; 0.67 mg kg^−1 oral
  Serum Glucose Concentration, 15 min: 109.94 ± 17.55 mg/dL
  Serum Glucose Concentration, 30 min: 109.04 ± 26.58 mg/dL
  Serum Glucose Concentration, 60 min: 106.79 ± 11.98 mg/dL
  Serum Glucose Concentration, 120 min: 76.95 ± 11.53 mg/dL
  Serum Glucose Concentration, −60 min: 97.70 ± 5.27 mg/dL
  Serum Glucose Concentration, 0 min: 87.08 ± 6.03 mg/dL
purpose-bred beagles; 2.0 mg kg^−1 oral
  Serum Glucose Concentration, 15 min: 104.49 ± 9.60 mg/dL
  Serum Glucose Concentration, 30 min: 112.86 ± 9.82 mg/dL
  Serum Glucose Concentration, 60 min: 108.81 ± 6.77 mg/dL
  Serum Glucose Concentration, 120 min: 71.06 ± 5.49 mg/dL
  Serum Glucose Concentration, −60 min: 92.21 ± 7.11 mg/dL
  Serum Glucose Concentration, 0 min: 85.10 ± 4.74 mg/dL
Cats with diabetes; diabetic cats on bexagliflozin
  model-adjusted population mean BUN concentration: 33.82 mg/dL
  model-adjusted population mean SDMA concentration: 19.10 µg/dL
Cats with diabetes; diabetic cats on bexagliflozin, non-baseline visits
  model-adjusted population mean creatinine concentration: 1.367 mg/dL
Cats with diabetes; diabetic cats, p<0.0001
  estimated coefficient for day of measurement, creatinine: 0.000928
Cats with diabetes; diabetic cats, p=0.0172
  estimated coefficient for day of measurement, BUN: −0.01346
Cats with diabetes; diabetic cats, p=0.5338, not significant
  estimated coefficient for day of measurement, SDMA: −0.0021
Human SGLT2
  inhibition of human SGLT2 (in words): highly effective and specific inhibitor
Feline SGLT2
  inhibition of feline SGLT2 (in words): potent but less selective inhibitor
